Values of other authors in US20050215536A1, “Sequential SPRM/ progestin treatment” (priority 2004, published 2005).

Columns and labels:
progesterone receptor = biological target: T1, progesterone receptor (Oryctolagus cuniculus, UniProt P06186); settings: for agonist activity in the McPhail bioassay: rabbits; for McPhail score: rabbit model, scale of 0-4
T1 construct: SPRMs score lower than progesterone in the McPhail bioassay in rabbits; from tissue; host or cells: live rabbit
T1 sequence (P06186 1-930): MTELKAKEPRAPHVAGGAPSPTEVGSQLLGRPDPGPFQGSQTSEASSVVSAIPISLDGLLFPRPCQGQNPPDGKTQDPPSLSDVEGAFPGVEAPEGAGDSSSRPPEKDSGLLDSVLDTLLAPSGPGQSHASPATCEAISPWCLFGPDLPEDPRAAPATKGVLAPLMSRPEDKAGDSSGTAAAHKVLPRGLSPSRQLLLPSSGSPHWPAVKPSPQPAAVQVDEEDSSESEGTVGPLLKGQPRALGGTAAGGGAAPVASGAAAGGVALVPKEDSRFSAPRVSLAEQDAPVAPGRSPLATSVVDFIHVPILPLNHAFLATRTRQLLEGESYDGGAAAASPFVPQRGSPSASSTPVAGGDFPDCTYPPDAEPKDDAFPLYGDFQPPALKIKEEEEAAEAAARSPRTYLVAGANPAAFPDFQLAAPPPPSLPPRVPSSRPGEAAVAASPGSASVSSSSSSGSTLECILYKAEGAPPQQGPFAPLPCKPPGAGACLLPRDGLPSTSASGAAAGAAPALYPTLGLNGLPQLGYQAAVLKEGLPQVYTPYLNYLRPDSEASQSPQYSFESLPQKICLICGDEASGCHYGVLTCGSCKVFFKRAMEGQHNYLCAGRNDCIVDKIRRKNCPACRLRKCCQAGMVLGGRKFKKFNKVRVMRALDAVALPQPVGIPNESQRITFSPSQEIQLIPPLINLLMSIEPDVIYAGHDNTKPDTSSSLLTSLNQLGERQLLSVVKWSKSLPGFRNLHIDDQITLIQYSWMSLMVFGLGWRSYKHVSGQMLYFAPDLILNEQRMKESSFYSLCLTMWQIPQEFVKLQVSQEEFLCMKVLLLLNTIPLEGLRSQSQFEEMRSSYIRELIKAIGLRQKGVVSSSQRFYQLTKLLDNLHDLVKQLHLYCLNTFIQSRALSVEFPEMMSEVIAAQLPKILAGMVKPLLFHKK

[1] = premenopausal women

SMILES	agonist activity in the McPhail bioassay (progesterone receptor)	withdrawal bleeding (start of spontaneous menstrual cycle), time after stopping the SPRM treatment ([1]; all subjects, latest occurrence)	resumption of menstruation, time after cessation of treatment ([1]; majority of subjects) [days]	McPhail score (progesterone receptor)
CN(C)c1ccc([C@H]2C[C@]3(C)[C@@H](CC[C@]3(O)CCCO)[C@@H]3CCC4=CC(=O)CCC4=C32)cc1 [onapristone]	do not show any agonist activity	–	–	–
COC[C@]1(OC)CC[C@H]2[C@@H]3CCC4=CC(=O)CCC4=C3[C@@H](c3ccc(/C=N/O)cc3)C[C@@]21C [J867, 4-[17β-Methoxy-17α-(methoxymethyl)-3-oxoestra-4,9-dien-11β-yl]benzaldehyd-(1E)-oxim]	–	up to 90 days	≤ 30	–
CC(=O)[C@H]1CC[C@H]2[C@@H]3CCC4=CC(=O)CC[C@]4(C)[C@H]3CC[C@]12C [progesterone]	–	–	–	4
CC#C[C@]1(O)CC[C@H]2[C@@H]3CCC4=CC(=O)CCC4=C3[C@@H](c3ccc(N(C)C)cc3)C[C@@]21C [RU486, mifepristone]	do not show any agonist activity	–	–	less than 0.5
